What was measured:
[1] = SD rats; cited from earlier work
wild-type TF-1 = assay: 2-HG reducing assay in cell; assay type: cell-based
BCRP = molecular target: T1, BCRP (Homo sapiens, UniProt Q9UNQ0); details: cited from earlier work
T1 sequence (Q9UNQ0 1-655): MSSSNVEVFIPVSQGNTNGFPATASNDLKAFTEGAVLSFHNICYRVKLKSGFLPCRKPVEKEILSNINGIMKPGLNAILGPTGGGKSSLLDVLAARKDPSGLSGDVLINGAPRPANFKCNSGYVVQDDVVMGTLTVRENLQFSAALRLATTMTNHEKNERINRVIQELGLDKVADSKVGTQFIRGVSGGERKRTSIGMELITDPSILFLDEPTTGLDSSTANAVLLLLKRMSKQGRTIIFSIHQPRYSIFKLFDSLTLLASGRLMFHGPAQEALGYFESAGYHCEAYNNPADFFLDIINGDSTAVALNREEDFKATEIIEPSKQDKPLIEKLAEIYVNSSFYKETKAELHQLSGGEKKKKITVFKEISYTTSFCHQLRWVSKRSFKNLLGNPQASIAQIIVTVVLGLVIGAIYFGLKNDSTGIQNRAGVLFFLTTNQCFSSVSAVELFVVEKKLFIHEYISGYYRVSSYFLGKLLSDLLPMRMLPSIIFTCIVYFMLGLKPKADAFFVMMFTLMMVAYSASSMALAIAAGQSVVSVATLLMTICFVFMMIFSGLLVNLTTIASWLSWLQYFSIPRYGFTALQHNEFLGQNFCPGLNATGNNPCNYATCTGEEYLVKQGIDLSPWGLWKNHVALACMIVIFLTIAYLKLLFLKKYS

MDR1 = MDR1 (Homo sapiens, UniProt P08183); details: cited from earlier work
MDR1, sequence (P08183 whole entry): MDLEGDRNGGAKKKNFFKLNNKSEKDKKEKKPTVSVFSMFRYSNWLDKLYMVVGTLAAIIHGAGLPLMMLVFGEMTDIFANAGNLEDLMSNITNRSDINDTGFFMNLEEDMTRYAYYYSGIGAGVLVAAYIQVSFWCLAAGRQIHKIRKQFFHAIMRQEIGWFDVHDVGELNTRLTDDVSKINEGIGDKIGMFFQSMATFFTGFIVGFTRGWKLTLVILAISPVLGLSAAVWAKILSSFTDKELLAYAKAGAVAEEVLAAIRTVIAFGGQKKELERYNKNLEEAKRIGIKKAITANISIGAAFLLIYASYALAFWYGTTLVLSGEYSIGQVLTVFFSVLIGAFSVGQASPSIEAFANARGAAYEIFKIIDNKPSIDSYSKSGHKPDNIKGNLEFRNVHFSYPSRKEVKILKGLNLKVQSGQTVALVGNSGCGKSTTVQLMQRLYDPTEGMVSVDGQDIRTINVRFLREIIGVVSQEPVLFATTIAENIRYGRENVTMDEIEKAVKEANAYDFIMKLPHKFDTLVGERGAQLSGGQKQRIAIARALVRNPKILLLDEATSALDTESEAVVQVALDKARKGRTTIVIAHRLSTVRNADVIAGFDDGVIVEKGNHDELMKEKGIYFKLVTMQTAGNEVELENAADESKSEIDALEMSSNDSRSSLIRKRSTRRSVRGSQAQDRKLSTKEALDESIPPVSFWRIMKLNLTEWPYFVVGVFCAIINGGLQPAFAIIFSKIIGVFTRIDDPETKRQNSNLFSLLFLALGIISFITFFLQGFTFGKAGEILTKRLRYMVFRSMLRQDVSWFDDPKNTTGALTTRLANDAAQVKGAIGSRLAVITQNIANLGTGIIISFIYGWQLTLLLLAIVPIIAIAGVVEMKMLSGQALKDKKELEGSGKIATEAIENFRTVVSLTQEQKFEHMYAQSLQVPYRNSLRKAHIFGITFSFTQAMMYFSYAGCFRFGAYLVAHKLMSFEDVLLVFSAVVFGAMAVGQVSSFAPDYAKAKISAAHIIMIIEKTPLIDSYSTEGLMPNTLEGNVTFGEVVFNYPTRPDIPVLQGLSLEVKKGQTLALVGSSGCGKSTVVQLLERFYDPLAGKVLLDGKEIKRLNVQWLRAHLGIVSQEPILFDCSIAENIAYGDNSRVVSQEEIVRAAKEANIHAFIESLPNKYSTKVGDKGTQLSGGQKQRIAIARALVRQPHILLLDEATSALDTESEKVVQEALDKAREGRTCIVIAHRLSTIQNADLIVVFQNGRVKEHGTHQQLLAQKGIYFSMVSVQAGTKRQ

SMILES: CC(C)(O)CNc1nc(Nc2ccnc(C(F)(F)F)c2)nc(-c2cccc(C(F)(F)F)n2)n1 [AG-221, Enasidenib]
- prototype drug in the excrement, share of the total drugs [1]: about 50%
- prototype products and metabolites excreted in feces [1]: > 90%
- overall concentration of 2-HG (wild-type TF-1): did not change significantly
- inhibition of BCRP (BCRP): strong inhibitor
- inhibition of MDR1 (MDR1): strong inhibitor
